Reference: paper PMC7835349 (Communications Biology, 2021)
Values joined by “and” are separate entries in the source; they are usually repeats but may differ in a detail not shown here. Equal values may be shown once.

Test system: telemetered dogs
Assay: Conscious dog telemetry (QRS amplitude and other cardiovascular parameters, tolerability)
[1] = dog 264, 0.2 mg/kg, 0.5h infusion, -0.75 hours (pre-dose)
[2] = dog 264, 0.2 mg/kg, 0.5h infusion, -1 hours (pre-dose)
[3] = dog 264, 0.2 mg/kg, 0.5h infusion, -1.25 hours (pre-dose)
[4] = dog, 0.2 mg/kg 0.5h infusion, 0.5 h, 0.2 mg/kg
[5] = dog, 0.2 mg/kg 0.5h infusion, 0.75 h, 0.2 mg/kg
[6] = dog, 0.2 mg/kg 0.5h infusion, 1 h, 0.2 mg/kg
[7] = dog, 0.2 mg/kg 0.5h infusion, 1.5 h, 0.2 mg/kg
[8] = dog, 0.2 mg/kg 0.5h infusion, 2 h, 0.2 mg/kg
[9] = dog, 0.2 mg/kg 0.5h infusion, 3 h, 0.2 mg/kg
[10] = dog, 0.2 mg/kg 0.5h infusion, 4 h, 0.2 mg/kg
[11] = dog, 0.2 mg/kg 0.5h infusion, 6 h, 0.2 mg/kg
[12] = dog, 0.2 mg/kg 0.5h infusion, 8 h, 0.2 mg/kg
[13] = dog, 0.2 mg/kg 0.5h infusion, 12 h, 0.2 mg/kg
[14] = dog, 0.2 mg/kg 0.5h infusion, 16 h, 0.2 mg/kg
[15] = dog, 0.2 mg/kg 0.5h infusion, 22 h, 0.2 mg/kg
[16] = dog, 0.2 mg/kg 0.5h infusion, -0.75 h, 0.2 mg/kg
[17] = dog, 0.2 mg/kg 0.5h infusion, -1 h, 0.2 mg/kg
[18] = dog, 0.2 mg/kg 0.5h infusion, -1.25 h, 0.2 mg/kg
[19] = dog, 0.85 mg/kg 0.5h infusion, 0.5 h, 0.85 mg/kg
[20] = dog, 0.85 mg/kg 0.5h infusion, 0.75 h, 0.85 mg/kg

SMILES: CN(CCO)CCC(CSc1ccccc1)Nc1ccc(S(=O)(=O)NC(=O)c2ccc(N3CCC(C(O)c4ccccc4-c4ccc(Cl)cc4)CC3)cc2)cc1S(=O)(=O)C(F)(F)F (stereo not shown) [AZD4320]
- NOEL (no observed effect level), cardiovascular system (dog): 0.2 mg/kg
- ECG PR interval [1]: 111 ms
- ECG QRS duration [1]: 46 ms
- Left ventricular -dP/dt (mmHg/s) [1]: 3600 mmHg/s
- QRS amplitude (% baseline) [1]: 92 % baseline
- Systolic blood pressure (mmHg) [1]: 151 mmHg
- ECG PR interval [2]: 116 ms
- ECG QRS duration [2]: 48 ms
- Left ventricular -dP/dt (mmHg/s) [2]: 3490 mmHg/s
- QRS amplitude (% baseline) [2]: 71 % baseline
- Systolic blood pressure (mmHg) [2]: 155 mmHg
- ECG PR interval [3]: 111 ms
- ECG QRS duration [3]: 47 ms
- QRS amplitude (% baseline) [3]: 83 % baseline
- Systolic blood pressure (mmHg) [3]: 145 mmHg
- ECG PR interval [4]: 109 ms and 90 ms and 88 ms
- ECG QRS duration [4]: 48 ms and 38 ms and 40 ms and 37 ms
- Left ventricular -dP/dt (mmHg/s) [4]: 3401 mmHg/s and 3547 mmHg/s and 3477 mmHg/s and 4862 mmHg/s
- QRS amplitude (% baseline) [4]: 105 % baseline and 100 % baseline and 97 % baseline and 101 % baseline
- Systolic blood pressure (mmHg) [4]: 175 mmHg and 149 mmHg and 155 mmHg and 165 mmHg
- ECG PR interval [5]: 113 ms and 82 ms and 85 ms and 87 ms
- ECG QRS duration [5]: 49 ms and 37 ms and 40 ms
- Left ventricular -dP/dt (mmHg/s) [5]: 3504 mmHg/s and 3607 mmHg/s and 3634 mmHg/s and 4976 mmHg/s
- QRS amplitude (% baseline) [5]: 94 % baseline and 91 % baseline and 92 % baseline
- Systolic blood pressure (mmHg) [5]: 163 mmHg and 153 mmHg and 156 mmHg and 164 mmHg
- ECG PR interval [6]: 116 ms and 88 ms and 93 ms
- ECG QRS duration [6]: 47 ms and 38 ms and 40 ms and 37 ms
- Left ventricular -dP/dt (mmHg/s) [6]: 3285 mmHg/s and 3388 mmHg/s and 2965 mmHg/s and 4801 mmHg/s
- QRS amplitude (% baseline) [6]: 88 % baseline and 90 % baseline and 92 % baseline and 95 % baseline
- Systolic blood pressure (mmHg) [6]: 150 mmHg and 144 mmHg and 138 mmHg and 159 mmHg
- ECG PR interval [7]: 119 ms and 95 ms and 104 ms and 88 ms
- ECG QRS duration [7]: 49 ms and 38 ms and 40 ms and 37 ms
- Left ventricular -dP/dt (mmHg/s) [7]: 3080 mmHg/s and 3480 mmHg/s and 2336 mmHg/s and 4643 mmHg/s
- QRS amplitude (% baseline) [7]: 83 % baseline and 97 % baseline and 84 % baseline and 99 % baseline
- Systolic blood pressure (mmHg) [7]: 135 mmHg and 152 mmHg and 130 mmHg and 156 mmHg
- ECG PR interval [8]: 110 ms and 85 ms and 101 ms and 91 ms
- ECG QRS duration [8]: 47 ms and 37 ms and 40 ms
- QRS amplitude (% baseline) [8]: 86 % baseline and 90 % baseline and 91 % baseline and 95 % baseline
- Systolic blood pressure (mmHg) [8]: 167 mmHg and 155 mmHg and 129 mmHg and 164 mmHg
- ECG PR interval [9]: 115 ms and 98 ms and 96 ms and 89 ms
- ECG QRS duration [9]: 48 ms and 37 ms and 39 ms and 36 ms
- Left ventricular -dP/dt (mmHg/s) [9]: 3439 mmHg/s and 3333 mmHg/s and 2944 mmHg/s and 5068 mmHg/s
- QRS amplitude (% baseline) [9]: 121 % baseline and 94 % baseline and 76 % baseline and 88 % baseline
- Systolic blood pressure (mmHg) [9]: 164 mmHg and 159 mmHg and 145 mmHg and 170 mmHg
- ECG PR interval [10]: 106 ms and 97 ms and 92 ms and 91 ms
- ECG QRS duration [10]: 46 ms and 36 ms and 39 ms
- Left ventricular -dP/dt (mmHg/s) [10]: 3609 mmHg/s and 3205 mmHg/s and 2963 mmHg/s and 4495 mmHg/s
- QRS amplitude (% baseline) [10]: 97 % baseline and 82 % baseline and 80 % baseline and 89 % baseline
- Systolic blood pressure (mmHg) [10]: 153 mmHg and 136 mmHg and 139 mmHg and 152 mmHg
- ECG PR interval [11]: 96 ms and 86 ms and 89 ms and 67 ms
- ECG QRS duration [11]: 48 ms and 37 ms and 39 ms
- Left ventricular -dP/dt (mmHg/s) [11]: 2830 mmHg/s and 3356 mmHg/s and 3220 mmHg/s and 3767 mmHg/s
- QRS amplitude (% baseline) [11]: 108 % baseline and 84 % baseline and 81 % baseline and 102 % baseline
- Systolic blood pressure (mmHg) [11]: 147 mmHg and 145 mmHg and 158 mmHg
- ECG PR interval [12]: 98 ms and 88 ms and 86 ms and 73 ms
- ECG QRS duration [12]: 48 ms and 37 ms and 39 ms
- Left ventricular -dP/dt (mmHg/s) [12]: 3465 mmHg/s and 3133 mmHg/s and 2471 mmHg/s and 4567 mmHg/s
- QRS amplitude (% baseline) [12]: 100 % baseline and 88 % baseline and 97 % baseline and 93 % baseline
- Systolic blood pressure (mmHg) [12]: 144 mmHg and 140 mmHg and 137 mmHg and 142 mmHg
- ECG PR interval [13]: 101 ms and 87 ms and 98 ms and 66 ms
- ECG QRS duration [13]: 49 ms and 38 ms and 40 ms and 37 ms
- Left ventricular -dP/dt (mmHg/s) [13]: 3004 mmHg/s and 2664 mmHg/s and 2608 mmHg/s and 4493 mmHg/s
- QRS amplitude (% baseline) [13]: 121 % baseline and 90 % baseline and 84 % baseline
- Systolic blood pressure (mmHg) [13]: 133 mmHg and 131 mmHg and 134 mmHg and 165 mmHg
- ECG PR interval [14]: 108 ms and 95 ms and 94 ms and 77 ms
- ECG QRS duration [14]: 47 ms and 37 ms and 40 ms
- Left ventricular -dP/dt (mmHg/s) [14]: 2948 mmHg/s and 3176 mmHg/s and 2965 mmHg/s and 4367 mmHg/s
- QRS amplitude (% baseline) [14]: 91 % baseline and 93 % baseline and 81 % baseline and 101 % baseline
- Systolic blood pressure (mmHg) [14]: 151 mmHg and 132 mmHg and 146 mmHg and 164 mmHg
- ECG PR interval [15]: 115 ms and 93 ms and 97 ms and 80 ms
- ECG QRS duration [15]: 48 ms and 38 ms and 39 ms
- Left ventricular -dP/dt (mmHg/s) [15]: 3689 mmHg/s and 2854 mmHg/s and 2653 mmHg/s and 4540 mmHg/s
- QRS amplitude (% baseline) [15]: 114 % baseline and 97 % baseline and 102 % baseline
- Systolic blood pressure (mmHg) [15]: 156 mmHg and 142 mmHg
- ECG PR interval [16]: 90 ms and 106 ms and 89 ms
- ECG QRS duration [16]: 37 ms and 40 ms
- Left ventricular -dP/dt (mmHg/s) [16]: 3499 mmHg/s and 3284 mmHg/s and 4521 mmHg/s
- QRS amplitude (% baseline) [16]: 97 % baseline and 88 % baseline and 93 % baseline
- Systolic blood pressure (mmHg) [16]: 168 mmHg and 148 mmHg and 160 mmHg
- ECG PR interval [17]: 91 ms and 102 ms and 82 ms
- ECG QRS duration [17]: 38 ms and 40 ms and 37 ms
- Left ventricular -dP/dt (mmHg/s) [17]: 3364 mmHg/s and 3529 mmHg/s and 4819 mmHg/s
- QRS amplitude (% baseline) [17]: 99 % baseline and 90 % baseline and 93 % baseline
- Systolic blood pressure (mmHg) [17]: 161 mmHg and 160 mmHg and 157 mmHg
- ECG PR interval [18]: 90 ms and 95 ms and 93 ms
- ECG QRS duration [18]: 37 ms and 40 ms
- Left ventricular -dP/dt (mmHg/s) [18]: 3238 mmHg/s and 3347 mmHg/s and 4656 mmHg/s
- QRS amplitude (% baseline) [18]: 104 % baseline and 91 % baseline and 97 % baseline
- Systolic blood pressure (mmHg) [18]: 147 mmHg and 150 mmHg and 151 mmHg
- QRS amplitude (% baseline) (dog, 0.2 mg/kg 0.5h infusion, -[…]): 100 % baseline
- ECG PR interval [19]: 115 ms and 79 ms
- ECG QRS duration [19]: 45 ms and 37 ms and 40 ms
- Left ventricular -dP/dt (mmHg/s) [19]: 3662 mmHg/s and 3777 mmHg/s and 3464 mmHg/s
- QRS amplitude (% baseline) [19]: 94 % baseline and 95 % baseline and 97 % baseline
- Systolic blood pressure (mmHg) [19]: 155 mmHg and 158 mmHg
- ECG PR interval [20]: 119 ms and 78 ms
- ECG QRS duration [20]: 44 ms and 38 ms and 40 ms
- Left ventricular -dP/dt (mmHg/s) [20]: 3170 mmHg/s and 3744 mmHg/s and 3322 mmHg/s
- QRS amplitude (% baseline) [20]: 99 % baseline and 91 % baseline and 104 % baseline
- Systolic blood pressure (mmHg) [20]: 154 mmHg and 157 mmHg
